Assay results published in patent US6849455B1, “Enhanced recovery of transformed cells” (New York University, priority 2000, dated 2005).

Key:
E. coli = experiment: Supplements to rich/selective media in RepFIC transformations; type: cell-based; details: for effective as substitute for the L-cysteine effect in RepFIC transformations: supplement to rich media, glutathione 300 micrograms per ml; for increase in the number of transformants: supplement added to the selective medium
C600 [1] = experiment: Transformation of scL and scH RepFIC plasmid DNAs into C600; type: cell-based, E. coli; details: supplement added after electroporation and/or during selection
Method: The package consists of homocysteine, ferrous sulfate, and magnesium sulfate.
To ascertain that the scL phenotype was heritable under all circumstances and viable, scL DNA was transferred into C600 by electroporation. Selection of transformants was carried out without additional supplements or in the presence of cysteine or glutathione. […] Thus, although an additional source of cysteine is still required under the conditions of this transformation, cysteine becomes toxic at the concentration that was previously used.
In order to identify the contribution of co-transmitted molecules that are easily removed, scL DNA was in vitro salt-stripped before being transformed. […] Plasmid preparations are associated with several proteins, of about 32 kda in size, which could be the dam-methyltransferase (GenBank accession no. J01600). Therefore, it is possible that the dam-methyltransferase is one significant component removed by the salt treatment.
The methylation reaction per se could have become limiting as a result of the removal of methyltransferase, and activation of the biosynthesis of S-adenosylmethionine (SAM), the methyl donor in the methylation reaction, could help overcome low enzyme levels in the cell. Homocysteine is a known co-inducer of the MetR regulon (Schell, 1993), and thus activates the synthesis of SAM (Palmer and Marinus, 1994). […]

lon host Δlon-510 = experiment: Plasmid yield after overnight growth with glycerol as carbon source; type: cell-based, E. coli; details: homocysteine and ferrous sulfate supplements
Method: (§1) Glycerol, when used as a carbon source, avoids catabolite repression. The plasmid was prepared from the following hosts grown overnight with the supplements homocysteine and ferrous sulfate, using glycerol as a carbon source: C600 containing the non-imprinted plasmid, the lon host Δlon-510 (containing the imprinted scL plasmid), and C600 containing the imprinted scL plasmid. […] One interpretation of the difference seen between lanes 3-4 and 5-6 is that when Lon is present (C600) and there is no catabolite repression, the post-replicative steps occur at a sufficient rate to adjust for the recovery of the final product, scH plasmid. When Lon is absent, stimulation of steps occurring after normal Lon-processing are ineffective because the substrate for these steps is insufficient.

C600 [2] = experiment: as above; type: cell-based, E. coli; details: homocysteine and ferrous sulfate supplements
Method: as §1

C600 hosts = details: additives: cysteine, cystine, or glutathione
Excerpt: Single colonies that were normal in appearance, selected after transformation of C600 hosts in the presence of cysteine (Table 1, row 1) were resuspended in liquid medium. Aliquots were streaked onto spectinomycin-containing plates and spectinomycin plates with the following additives: cysteine, cystine, or glutathione.
Single colonies selected after transformation of C600 hosts in the presence of cysteine (Table 1, row 1) were initially difficult to grow.

CC(=O)NC(CS)C(=O)O (racemic) [-acetyl-D,L-cysteine, N-acetyl-D,L-cysteine]
effective as substitute for the L-cysteine effect in RepFIC transformations (E. coli): None of these was effective

N[C@@H](CCS)C(=O)O [Homocysteine, homocysteine]
recovery of transformants with highly purified (salt-stripped) transforming DNA (C600 [1]): rescued the transforming ability

N[C@@H](CS(=O)(=O)O)C(=O)O [L0cysteic acid, L-cysteic acid]
effective as substitute for the L-cysteine effect in RepFIC transformations (E. coli): None of these was effective

N=C(N)NCCC[C@H](N)C(=O)O [L-arginine]
effective as substitute for the L-cysteine effect in RepFIC transformations (E. coli): None of these was effective

N[C@@H](CS)C(=O)O [L-cysteine]
recovery of transformants with highly purified (salt-stripped) transforming DNA (C600 [1]): no longer helped in the recovery of transformants
optimal concentration of cysteine (E. coli; selective medium, RepFIC transformation): 400 micrograms per ml
increase in the number of transformants (E. coli; RepFIC): ~10^3 fold

N[C@@H](CSSC[C@H](N)C(=O)O)C(=O)O [L-cystine]
effective as substitute for the L-cysteine effect in RepFIC transformations (E. coli): None of these was effective

CSCC[C@H](N)C(=O)O [L-methionine]
effective as substitute for the L-cysteine effect in RepFIC transformations (E. coli): None of these was effective

O=S(=O)([O-])[O-].[Mg+2] [Magnesium sulfate, magnesium sulfate]
increase in the transformation efficiency (E. coli; supplement added after electroporation, RepFIC): no effect
increase in the number of transformants (E. coli; RepFIC): no effect

OCC(O)CO [glycerol]
increase in yield of plasmid (lon host Δlon-510): 5 to 10 fold
increase in yield of plasmid (C600 [2]): 5 to 10 fold

glutamyl-cysteinylglycine [glutathione]
growth of cysteine-selected transformants on spectinomycin plates with additive (C600 hosts): only grew on the glutathione-supplemented plates
number of colonies obtained (E. coli; glutathione 300 micrograms per ml compared to 400 micrograms cysteine per ml): the same as with cysteine
effective as substitute for the L-cysteine effect in RepFIC transformations (E. coli): effective
